Assay results: US20240240224A1, “FLUORESCENT D-TYPE AMINO ACID METABOLISM MARKER-BASED METHOD FOR DETECTING ANTIBACTERIAL DRUG SENSITIVITY TEST” (priority 2020, published 2024)

How the values were obtained:
Ec ATCC 25922 [1] = assay: BMD susceptibility test; assay type: cell-based, Escherichia coli; details: unit assumed
E. coli Ec11 [2] = assay: FaAST (FDAA metabolic labeling); assay type: cell-based, Escherichia coli; details: unit assumed
Method: (§1) The specific experimental steps are as follows: • 1. Take the colony to be tested that has been cultured overnight on the plate and fully mix it in normal saline to make a uniform bacterial solution. Dilute it into CAMHB medium to make a bacterial solution with OD600=0.05. • 2. Add 45 μl antibiotic solutions to be tested of different concentrations to 96-well plates (see Table 3 for antibiotic concentration gradient settings). • 3. Add 50 μl of bacterial solution prepared in Step 1 to the 96-well plate and mix well. • 4.5 μl of 10 mM Cy5-DAA probe was added to each well (final concentration was 0.15 mM, and its structure was shown in FIG. 1). After mixing, the probe was incubated for 2 hours in the dark. • 5. After dilution with 200 μl PBS solution, the fluorescence intensity of each sample was detected by flow cytometry. The flow detection results are shown in the attached FIG. 4-5, showing the curve of antibiotic concentration gradient and fluorescence intensity, and the MIC (minimum inhibitory concentration) is obtained by referring to this curve.
(§2) Antibiotic resistant strains are shown in bold in the table below.

Ec ATCC 25922 [3] = assay: FaAST (FDAA metabolic labeling); assay type: cell-based, Escherichia coli; details: unit assumed
Method: as §1, §2

E. coli Ec11 [4] = assay: BMD susceptibility test; assay type: cell-based, Escherichia coli; details: unit assumed
K. pneumoniae Kp6 [5] = assay: BMD susceptibility test; assay type: cell-based, Klebsiella pneumoniae; details: unit assumed
Ec ATCC 25922 [6] = details: cited from earlier work
K. pneumoniae Kp6 [7] = assay: FaAST (FDAA metabolic labeling); assay type: cell-based, Klebsiella pneumoniae; details: unit assumed
Method: as §1, with “cytometry.” for “cytometry. The flow detection results are shown in the attached FIG. 4-5, showing the curve of antibiotic concentration gradient and fluorescence intensity, and the MIC (minimum inhibitory concentration) is obtained by referring to this curve.”

E. coli Ec13 [8] = assay: BMD susceptibility test; assay type: cell-based, Escherichia coli; details: unit assumed
E. coli Ec13 [9] = assay: FaAST (FDAA metabolic labeling); assay type: cell-based, Escherichia coli; details: unit assumed
Method: as §1, with “cytometry.” for “cytometry. The flow detection results are shown in the attached FIG. 4-5, showing the curve of antibiotic concentration gradient and fluorescence intensity, and the MIC (minimum inhibitory concentration) is obtained by referring to this curve.”

K. pneumoniae Kp9 [10] = assay: BMD susceptibility test; assay type: cell-based, Klebsiella pneumoniae; details: unit assumed
K. pneumoniae Kp9 [11] = assay: FaAST (FDAA metabolic labeling); assay type: cell-based, Klebsiella pneumoniae; details: unit assumed
Method: as §1, with “cytometry.” for “cytometry. The flow detection results are shown in the attached FIG. 4-5, showing the curve of antibiotic concentration gradient and fluorescence intensity, and the MIC (minimum inhibitory concentration) is obtained by referring to this curve.”

[12] = tested on: alveolar lavage fluid sample 0203, K. pneumoniae; assay: FaAST (FDAA) susceptibility test of patient alveolar lavage fluid; assay type: cell-based, Klebsiella pneumoniae; details: unit assumed
Method: (§3) With reference to the flow chart of the rapid detection method of antimicrobial susceptibility test based on FDAA metabolic markers shown in FIG. 3, FDAA is used for the detection of antimicrobial susceptibility test of alveolar lavage fluid. The specific experimental steps are as follows: • 1. Mix bronchoalveolar lavage fluid (BALF, 10 ml) of patients with hospital acquired pneumonia with cation regulated broth medium (CAMHB, 10 ml) of twice the concentration to prepare the bacterial fluid to be tested. • 2. Add 45 μl antibiotic solutions of different concentrations to the 96-well plate separately (see Table 1 for antibiotic concentration gradient settings). • 3. Add 50 μl of the bacterial solution prepared in step 1 to the 96-well plate and mix well. • 4. Add 5 μl of 10 mM Cy5-DAA probe (final concentration 0.15 mM, see FIG. 1 for its structure) into each well, mix well, and then cultivate in dark for 2 hours. • 5. Add 200 μl PBS solution for dilution, and then use flow cytometry to detect the fluorescence intensity of each sample.
(§4) The results of antimicrobial susceptibility test of alveolar lavage fluid of seven patients using FDAA and BMD methods are shown in the following table. The drug-resistant bacteria are shown in bold.

[13] = tested on: alveolar lavage fluid sample 0226, K. pneumoniae; assay: as above; assay type: cell-based, Klebsiella pneumoniae; details: unit assumed
Method: as §3, §4

[14] = tested on: alveolar lavage fluid sample 0204, A. baumannii; assay: BMD susceptibility test of patient alveolar lavage fluid; assay type: cell-based, Acinetobacter baumannii; details: unit assumed
[15] = tested on: alveolar lavage fluid sample 0206, A. baumannii; assay: as above; assay type: cell-based, Acinetobacter baumannii; details: unit assumed
Text: as §4

[16] = tested on: alveolar lavage fluid sample 0219, A. baumannii; assay: as above; assay type: cell-based, Acinetobacter baumannii; details: unit assumed
Text: as §4

[17] = tested on: alveolar lavage fluid sample 0130, A. baumannii; assay: as above; assay type: cell-based, Acinetobacter baumannii; details: unit assumed
Text: as §4

[18] = tested on: alveolar lavage fluid sample 0206, A. baumannii; assay: FaAST (FDAA) susceptibility test of patient alveolar lavage fluid; assay type: cell-based, Acinetobacter baumannii; details: unit assumed
Method: as §3, §4

[19] = tested on: alveolar lavage fluid sample 0204, A. baumannii; assay: as above; assay type: cell-based, Acinetobacter baumannii; details: unit assumed
Method: as §3, §4

[20] = tested on: alveolar lavage fluid sample 0219, A. baumannii; assay: as above; assay type: cell-based, Acinetobacter baumannii; details: unit assumed
Method: as §3, §4

[21] = tested on: alveolar lavage fluid sample 0130, A. baumannii; assay: as above; assay type: cell-based, Acinetobacter baumannii; details: unit assumed
Method: as §3, §4

[22] = tested on: alveolar lavage fluid sample 0203, K. pneumoniae; assay: BMD susceptibility test of patient alveolar lavage fluid; assay type: cell-based, Klebsiella pneumoniae; details: unit assumed
Text: as §4

[23] = tested on: alveolar lavage fluid sample 0226, K. pneumoniae; assay: as above; assay type: cell-based, Klebsiella pneumoniae; details: unit assumed
Text: as §4

CO/N=C(\C(=O)N[C@@H]1C(=O)N2C(C(=O)O)=C(COC(N)=O)CS[C@H]12)c1ccco1 [Cefuroxime]
BMD (MIC) (Ec ATCC 25922 [1]): 4 µg/mL
FaAST (MIC) (E. coli Ec11 [2]): 8 µg/mL
FaAST (MIC) (Ec ATCC 25922 [3]): 8 µg/mL
BMD (MIC) (E. coli Ec11 [4]): 4 µg/mL
BMD (MIC) (K. pneumoniae Kp6 [5]): 2 µg/mL
CLSI QC range (Ec ATCC 25922 [6]): 2-8
FaAST (MIC) (K. pneumoniae Kp6 [7]): 4 µg/mL

Polymyxin B
BMD (MIC) (Ec ATCC 25922 [1]): 2 µg/mL
BMD (MIC) (E. coli Ec13 [8]): 8 µg/mL
FaAST (MIC) (E. coli Ec13 [9]): 8 µg/mL
FaAST (MIC) (E. coli Ec11 [2]): 2 µg/mL
FaAST (MIC) (Ec ATCC 25922 [3]): 2 µg/mL
BMD (MIC) (E. coli Ec11 [4]): 2 µg/mL
BMD (MIC) (K. pneumoniae Kp6 [5]): 0.5 µg/mL
CLSI QC range (Ec ATCC 25922 [6]): 0.25-2
BMD (MIC) (K. pneumoniae Kp9 [10]): 16 µg/mL
FaAST (MIC) (K. pneumoniae Kp9 [11]): 32 µg/mL
FaAST (MIC) (K. pneumoniae Kp6 [7]): 1 µg/mL

C[C@@H](O)[C@H]1C(=O)N2C(C(=O)O)=C(S[C@@H]3CN[C@H](C(=O)N(C)C)C3)[C@H](C)[C@H]12 [Meropenem]
FaAST (MIC) [12]: 0.25 µg/mL
FaAST (MIC) [13]: 0.25 µg/mL
BMD (MIC) [14]: 0.5 µg/mL
BMD (MIC) [15]: 32 µg/mL
BMD (MIC) [16]: 32 µg/mL
BMD (MIC) [17]: 64 µg/mL
FaAST (MIC) [18]: 32 µg/mL
FaAST (MIC) [19]: 4 µg/mL
FaAST (MIC) [20]: 64 µg/mL
FaAST (MIC) [21]: 32 µg/mL
BMD (MIC) [22]: 0.25 µg/mL
BMD (MIC) [23]: 0.25 µg/mL
